Reference: publication PMC12373846, “Hemoglobin as a pseudoperoxidase and drug target for oxidative stress-related diseases” (Signal Transduction and Targeted Therapy, 2025)
“And” between values parts separate entries of the source, which are not always exact repeats. Equal entries are not always repeated. Where two headings read alike, the source gives them in different places.

Legend:
[1] = test system: GiD mice; experiment: Novel place recognition test, GiD mice; type: in vivo, mouse; conditions: GiD+KDS12025 0.1mpk ad libitum, Fig. S11e
[2] = target: T1, PDE4D2 (h) (Homo sapiens, UniProt Q08499); experiment: SafetyScreen87 panel; type: biochemical
T1 construct: purchased Eurofins Discovery (Cerep, France)
T1 sequence (Q08499 303-809 limits assumed): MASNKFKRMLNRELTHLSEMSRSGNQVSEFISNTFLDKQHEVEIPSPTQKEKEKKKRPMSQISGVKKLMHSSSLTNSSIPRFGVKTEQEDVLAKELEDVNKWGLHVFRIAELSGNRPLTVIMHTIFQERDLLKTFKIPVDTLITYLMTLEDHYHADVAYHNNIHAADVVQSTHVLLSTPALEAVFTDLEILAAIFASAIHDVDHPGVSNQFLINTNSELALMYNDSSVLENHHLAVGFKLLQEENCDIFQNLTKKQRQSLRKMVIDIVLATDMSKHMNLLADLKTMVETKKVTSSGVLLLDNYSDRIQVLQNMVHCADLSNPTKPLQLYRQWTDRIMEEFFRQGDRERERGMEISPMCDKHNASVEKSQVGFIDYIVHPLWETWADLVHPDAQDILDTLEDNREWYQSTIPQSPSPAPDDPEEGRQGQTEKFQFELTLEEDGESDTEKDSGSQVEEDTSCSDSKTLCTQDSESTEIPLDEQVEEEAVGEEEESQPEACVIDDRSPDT
Experimental: The possibility of KDS12025 on kinase off-target, the KINOMEscan panel of scanEDGE assay was conducted in DiscoverX (CA, USA) using a site-directed competition binding with the test compounds. The assay results are given in Supplementary Table 4 and experimental information is available on the DiscoverX web page (www.discoverx.com). Moreover, the Delta SafetyScreen87 panel assay was conducted in Eurofins Discovery (Cerep, France). The assay results are given in Supplementary Table 5 and experimental information is available on the DiscoverX web page (https://www.eurofinsdiscoveryservices.com).

[3] = test system: A53T mice; experiment: Rotarod test, A53T PD mouse model; type: in vivo
Experimental: Stereotaxic injections were performed to deliver the AAV-CMV-A53T virus or PBS (control) into the right SNpc (AP, −3.2 mm; ML, −1.3 mm; DV, −4.0 mm from the bregma) of the mice. The injections were administered at a rate of 0.2 μl/min, with a total volume of 1 μl. The procedure was conducted under general anesthesia induced by 1% isoflurane.
The mice were habituated to the rotarod at speeds of 5, 10, and 15 rpm. Motor coordination and endurance were tested at 20 rpm for a maximum of 3 min. The latency to fall was recorded during the test to evaluate motor deficits associated with PD and the therapeutic effects of KDS12025.

[4] = test system: APP/PS1 mice; experiment: Hippocampal slice electrophysiology, APP/PS1 mice; type: in vivo, mouse; conditions: for tonic GABA current, granule cells: Fig. S10k; for sIPSC amplitude: Fig. S10l; for sIPSC frequency: Fig. S10m
Experimental: The mice were deeply anesthetized with 3% isoflurane followed by decapitation. The brain was quickly excised from the skull and submerged in a chilled cutting solution that contained 234 mM sucrose, 24 mM NaHCO3, 11 mM d(+)-glucose, 10 mM MgSO4, 2.5 mM KCl, […], and 0.5 mM CaCl2. Transverse hippocampi (300 µm thick) were prepared with a vibrating microtome (PRO7N; DSK) and transferred to an artificial cerebrospinal fluid (aCSF) solution that contained 130 mM NaCl, 24 mM NaHCO3, 1.25 mM NaH2PO4, 3.5 mM KCl, 1.5 mM CaCl2, 1.5 mM MgCl2, and 10 mM d(+)-glucose, pH 7.4. The slices were incubated at RT for at least 1 h before recording. All the solutions were saturated with 95% O2 and 5% CO2.
For recording of tonic GABA currents, slices were transferred to a recording chamber that was mounted on an upright Zeiss microscope and continuously perfused with aCSF solution. The slice was viewed with a 60× water immersion objective (numerical aperture = […]) with infrared differential interference contrast optics. […] Cellular morphology was visualized by a CMOS camera (Hamamatsu Photonics, Japan) and Imaging Workbench software (INDEC Biosystems). Whole-cell patch recordings were made from […] DG granule cells of the hippocampus. The holding potential was -70 mV. The pipette resistance was typically 6–8 MΩ, and the pipette was filled with an internal solution that contained (in mM): 135 CsCl; 4 NaCl; 0.5 CaCl2; 10 HEPES; 5 EGTA; 2 Mg-ATP; 0.5 Na2-GTP; 10 QX-314; pH adjusted to 7.2 with CsOH (278 to 285 mOsmol). The baseline current before the tonic current was measured was recorded with CNQX (20 µM) and D-AP5 (50 µM). The frequency and amplitude of spontaneous inhibitory postsynaptic currents before bicuculline (50 µM) administration were detected and measured via Mini Analysis (Synaptosoft, USA).
Dentate granule cell synaptic responses were elicited at a low frequency of 0.1 Hz by stimulating perforant path fibers. The stimulation was delivered over […] at intensities ranging from 0 to 1000 μA using a constant current isolation unit. A tungsten bipolar electrode was positioned in the molecular layer to stimulate the perforant path fibers. Recordings of the evoked excitatory postsynaptic potentials (EPSPs) […], and the pipette was filled with an internal solution that contained the following (in mM): 120 potassium gluconate; 10 KCl; 1 MgCl2; 0.5 EGTA; 40 HEPES; pH adjusted to 7.2 with KOH. The spiking probability was determined by the number of spikes generated per total stimulation. Electrical signals were digitized and sampled at […] with the Digidata 1550B data acquisition system and the Multiclamp 700B Amplifier (Molecular Devices, USA) via pClamp software.

CNc1ccc(NCCc2ccccc2OC)cc1.Cl [KDS12025, N^1-(2-methoxyphenethyl)-N^4-methylbenzene-1,4-diamine hydrochloride salt]
NPR discrimination index [1]: WT (0.2256±0.0275, n=3), GiD (-0.02438±0.07989, n=3), GiD+KDS12025 (0.1mpk) (0.2255±0.02347, n=4) One-way ANOVA with Tukey's multiple comparisons test, F(2,7) = 9.285, p = 0.01 WT vs. GiD, p = 0.02; WT vs. GiD+KDS12025 (0.1mpk), p > 0.99; GiD vs. GiD+KDS12025 (0.1mpk), p = 0.01 | activity ([2]; 1.00E-06; read-out: % Inhibition of Control Specific Binding (1st, 2nd, Mean)): 95.3% and 102% | activity ([2]; read-out: % Inhibition of Control Specific Binding (1st, 2nd, Mean); 1.00E-06): 98.7% | rotarod latency to fall ([3]; A53T+KDS12025 1 mg/kg/day ad libitum, Fig. 4h): Control (225.3±30.6, n=6), A53T (93.8±19.6, n=7), A53T+KDS12025 (223.8±23.5, n=8) One-way ANOVA with Tukey's multiple comparisons test, F(2,18) = 9.52, p = 0.002 Control vs. A53T, p = 0.005; Control vs. A53T+KDS12025, p > 0.99; A53T vs. A53T+KDS12025, p = 0.003 | rotarod latency to fall ([3]; A53T+shHbβ::CaMKII+KDS12025, Fig. 6q): 139.0±51.1 | rotarod latency to fall ([3]; A53T+shHbβ::GFAP+KDS12025, Fig. 6q): 117.0±63.6 | tonic GABA current, granule cells ([4]; 3mpk i.p.): 4.160±0.8926 | sIPSC amplitude ([4]; 3mpk i.p.): 36.09±4.601 | sIPSC frequency ([4]; 3mpk i.p.): 1.355±0.2694 | tonic GABA current, granule cells ([4]; 10mpk i.p.): 3.113±0.7279 | sIPSC amplitude ([4]; 10mpk i.p.): 26.02±1.734 | sIPSC frequency ([4]; 10mpk i.p.): 1.177±0.5985 | spike probability across stimulation intensities ([4]; 100–1000 μA, 3 mg/kg/day ad libitum, Fig. 5l left): 0.7455±0.1216
